2 compounds from US9750761B2, “LDH inhibitors as treatment for fibrosis and fibrotic-related disorders” (University of Rochester, priority 2014, dated 2017) can be followed below.

Each structure is given as a SMILES string.

Series [1] relates to primary human lung fibroblasts. In words: Radiation-induced myofibroblast differentiation (α-SMA, LDHA Western blot). The series is classed as cell-based. The settings on record: SB431542 2.5 μM from 1 hour before 7 Gy, 5 days post radiation. For orientation: A western blot detects proteins with antibodies after separation by electrophoresis.
Protocol: Cell Culture and Irradiations: Fibroblasts were cultured in Eagle's minimum essential media (Life Technologies, Gaithersburg, Md.) supplemented with 10% FBS (Sigma Aldrich, St. Louis, Mo.), 2 mM L-Glutamine, antibiotic and antimycotic (Gibco, Carlsbad, Calif.) at 37° C. with 7% CO2. Cells were irradiated with a ^137Cs γ-ray source at approximately 2.70 cGy/min dose rate at indicated doses. Human recombinant TGF-β1 (R&D systems, Minneapolis, Minn.) was used at 1 ng/ml. […] TGF-β1 receptor 1 was inhibited using SB431542 (Sigma Aldrich) at 2.5 μM starting 1 hour prior to irradiations.
Western Blotting: Cell lysates were run on SDS-PAGE under reducing conditions and probed for expression of α-SMA (Sigma Aldrich), LDHA (Abcam, Cambridge, Mass.). Glyceraldehyde 3-phosphate dehydrogenase (Abcam) was used as a loading control.
For series [2], the system named is primary human lung fibroblasts. In words: Alamar blue assay. The format is cell-based. The settings on record: 72 hours. On the procedure:
Alamar blue assay: Fibroblasts were cultured with and without TGF-β and/or gossypol for 72 hours and subsequently incubated with Alamar blue (Invitrogen, Grand Island, N.Y.). Alamar blue incorporation was determined by spectrophotometric analysis per the manufacturer's protocol.
Based on the foregoing results, it was believed that gossypol inhibits endogenous LDH activity, thus reducing lactate production and subsequent lactate-dependent activation of latent TGF-β in the medium. To investigate the mechanism of action of gossypol, fibroblasts were first treated with TGF-β for 72 hours. Next, protein lysates were harvested and incubated with increasing concentrations of gossypol for one hour. The LDH activity of each lysate was then determined with a standardized LDH kinetic activity assay. […] Next, it was investigated whether gossypol could prevent the extracellular accumulation of lactate by treated fibroblasts. […] To confirm that gossypol inhibits extracellular accumulation of lactate, the rate of extracellular acidification was measured using the commercially available Seahorse Bioassay. […] To determine whether the effects of gossypol were dependent on toxic effects on the cells, the Alamar blue assay was utilized.
(Alamar Blue is a resazurin reagent that responds to reducing activity.)

Take `NC(=O)c1ccc(-c2nc(-c3ccc4c(c3)OCO4)c(-c3ccccn3)[nH]2)cc1` [SB431542]: in series [1], the “radiation-induced α-SMA expression” value is on record as “significantly attenuated radiation-induced α-SMA expression”.

Take `Cc1cc2c(C(C)C)c(O)c(O)c(C=O)c2c(O)c1-c1c(C)cc2c(C(C)C)c(O)c(O)c(C=O)c2c1O` [gossypol]: the Alamar blue reduction result in series [2] (1 mM gossypol) and in series [2] (5 mM gossypol) was “no significant effect on Alamar blue reduction” each time. In addition, in series [2] (10 mM gossypol), the “decrease in Alamar blue reduction” value came to 50%.
